Legend:
[1] = biological target: T1, human adrenergic-α2A receptor (Homo sapiens, UniProt P08913); test: Radioligand binding experiment for hα2A-adrenergic receptor ([3H]raulwolscine); settings: [3H]raulwolscine 1 nM, 60 minutes at 25° C.; for IC50: read-out: h-α2A pIC50 (converted)
T1 construct: expressed in transfected cells; host or cells: CHO cells, stably transfected; membrane preparation
T1 sequence (P08913 1-465): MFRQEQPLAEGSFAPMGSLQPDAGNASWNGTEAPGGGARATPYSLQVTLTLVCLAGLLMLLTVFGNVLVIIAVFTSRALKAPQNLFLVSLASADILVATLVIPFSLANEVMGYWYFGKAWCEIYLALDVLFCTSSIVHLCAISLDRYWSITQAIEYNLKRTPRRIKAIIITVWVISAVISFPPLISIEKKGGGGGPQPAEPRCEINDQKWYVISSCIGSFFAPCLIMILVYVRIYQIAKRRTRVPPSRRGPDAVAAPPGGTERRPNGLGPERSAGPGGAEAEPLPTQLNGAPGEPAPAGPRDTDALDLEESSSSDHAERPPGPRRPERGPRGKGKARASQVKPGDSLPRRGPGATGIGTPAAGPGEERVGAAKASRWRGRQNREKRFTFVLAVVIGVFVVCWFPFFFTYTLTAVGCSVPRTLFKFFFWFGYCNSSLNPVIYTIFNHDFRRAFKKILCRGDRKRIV
Method: (§1) The interaction of the compounds of Formula (I) with α2C-adrenoceptor receptors was assessed in in vitro radioligand binding experiments. In general, a low concentration of a radioligand with a high binding affinity for a particular receptor or transporter is incubated with a sample of a tissue preparation enriched in a particular receptor or transporter or with a preparation of cells expressing cloned human receptors in a buffered medium. During the incubation, the radioligand binds to the receptor or transporter. When equilibrium of binding is reached, the receptor bound radioactivity is separated from the non-bound radioactivity, and the receptor- or transporter-bound activity is counted. The interaction of the test compounds with the receptor is assessed in competition binding experiments. Various concentrations of the test compound are added to the incubation mixture containing the receptor- or transporter preparation and the radioligand. The test compound in proportion to its binding affinity and its concentration inhibits binding of the radioligand. The radioligand used for […] receptor binding was [^3H]-raulwolscine.
(§2) CHO cells, stabile transfected with human adrenergic-α2A, -α2B or α2C receptor cDNA, were cultured in Dulbecco's Modified Eagle's Medium (DMEM)/Nutrient mixture Ham's F12 (ratio 1:1)(Gibco, Gent-Belgium) supplemented with 10% heat inactivated fetal calf serum (Life Technologies, Merelbeke-Belgium) and antibiotics (100 IU/ml penicillin G, 100 μg/ml streptomycin sulphate, 110 μg/ml pyruvic acid and 100 μg/ml L-glutamine). One day before collection, cells were induced with 5 mM sodiumbutyrate. Upon 80-90% of confluence, cells were scraped in phosphate buffered saline without Ca^2+ and Mg^2+ and collected by centrifugation at 1500×g for 10 minutes. The cells were homogenised in Tris-HCl 50 mM using an Ultraturrax homogenizer and centrifuged for 10 minutes at 23,500×g. The pellet was washed once by resuspension and rehomogenization and the final pellet was resuspended in Tris-HCl, divided in 1 ml aliquots and stored at −70° C.
(§3) Membranes were thawed and re-homogenized in incubation buffer (glycylglycine 25 mM, pH 8.0). In a total volume of 500 μl, 2-10 μg protein was incubated with [^3H]raulwolscine (NET-722) (New England Nuclear, USA) (1 nM final concentration) with or without competitor for 60 minutes at 25° C. followed by rapid filtration over GF/B filter using a Filtermate196 harvester (Packard, Meriden, Conn.). Filters were rinsed extensively with ice-cold rinsing buffer (Tris-HCl 50 mM pH 7.4). Filter-bound radioactivity was determined by scintillation counting in a Topcount (Packard, Meriden, Conn.) and results were expressed as counts per minute (cpm). Non-specific binding was determined in the presence of 1 μM oxymetazoline for hα2A- and hα2B receptors and 1 μM spiroxatrine for hα2C receptors.
(§4) Data from assays in the presence of compound were calculated as a percentage of total binding measured in the absence of test compound. Inhibition curves, plotting percent of total binding versus the log value of the concentration of the test compound, were automatically generated, and sigmoidal inhibition curves were fitted using non-linear regression. The pIC50 values of test compounds were derived from individual curves.

[2] = biological target: T2, human adrenergic-α2C receptor (Homo sapiens, UniProt P18825); test: Radioligand binding experiment for hα2C-adrenoceptor ([3H]raulwolscine); settings: [3H]raulwolscine 1 nM, 60 minutes at 25° C.; for IC50: read-out: h-α2C pIC50 (converted)
T2 construct: expressed in transfected cells; host or cells: CHO cells, stably transfected; membrane preparation
T2 sequence (P18825 1-462): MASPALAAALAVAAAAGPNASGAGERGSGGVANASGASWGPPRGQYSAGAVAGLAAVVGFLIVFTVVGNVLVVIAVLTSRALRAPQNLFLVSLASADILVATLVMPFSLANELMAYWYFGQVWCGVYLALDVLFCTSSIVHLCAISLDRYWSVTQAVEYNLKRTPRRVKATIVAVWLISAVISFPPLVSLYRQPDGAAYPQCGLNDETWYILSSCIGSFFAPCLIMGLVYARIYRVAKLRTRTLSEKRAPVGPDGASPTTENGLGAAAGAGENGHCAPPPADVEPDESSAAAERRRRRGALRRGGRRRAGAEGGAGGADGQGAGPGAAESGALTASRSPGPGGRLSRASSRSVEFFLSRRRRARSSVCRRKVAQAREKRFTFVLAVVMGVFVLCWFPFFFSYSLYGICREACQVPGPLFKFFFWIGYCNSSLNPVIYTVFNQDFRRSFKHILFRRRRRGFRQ
Method: as §1, §2, §3, §4

5HT-transporter = biological target: T3, 5HT-transporter (Homo sapiens, UniProt P31645); test: Binding experiment for the 5HT-transporter ([3H]paroxetine, human platelet membranes); settings: [3H]paroxetine 0.5 nM, 60 min at 25° C.; for IC50: read-out: h-5HTT pIC50 (converted)
T3 construct: Human platelet membranes (Oceanix Biosciences Corporation, Hanover, Md., USA) were thawed; tissue Oceanix Biosciences Corporation, Hanover, Md., USA; host or cells: human platelet membranes
Method: as §1
Human platelet membranes (Oceanix Biosciences Corporation, Hanover, Md., USA) were thawed, diluted in buffer (Tris-HCl 50 mM, 120 mM NaCl and 5 mM KCl) and quickly (max 3 s) homogenised with an Ultraturrax homogenizer. […] Incubation was stopped by rapid filtration of the incubation mixture over GF/B filters, pre-wetted with 0.1% polyethyleneamine, using a Filtermate196 harvester (Packard, Meriden, Conn.). Filters were rinsed extensively with ice-cold buffer and radioactivity on the filters was counted in a Topcount liquid scintillation counter (Packard, Meriden, Conn.). Data were expressed as cpm. Imipramine (at 1 μM final concentration) was used to determine the non-specific binding.
as §4

T3 sequence (P31645 whole entry): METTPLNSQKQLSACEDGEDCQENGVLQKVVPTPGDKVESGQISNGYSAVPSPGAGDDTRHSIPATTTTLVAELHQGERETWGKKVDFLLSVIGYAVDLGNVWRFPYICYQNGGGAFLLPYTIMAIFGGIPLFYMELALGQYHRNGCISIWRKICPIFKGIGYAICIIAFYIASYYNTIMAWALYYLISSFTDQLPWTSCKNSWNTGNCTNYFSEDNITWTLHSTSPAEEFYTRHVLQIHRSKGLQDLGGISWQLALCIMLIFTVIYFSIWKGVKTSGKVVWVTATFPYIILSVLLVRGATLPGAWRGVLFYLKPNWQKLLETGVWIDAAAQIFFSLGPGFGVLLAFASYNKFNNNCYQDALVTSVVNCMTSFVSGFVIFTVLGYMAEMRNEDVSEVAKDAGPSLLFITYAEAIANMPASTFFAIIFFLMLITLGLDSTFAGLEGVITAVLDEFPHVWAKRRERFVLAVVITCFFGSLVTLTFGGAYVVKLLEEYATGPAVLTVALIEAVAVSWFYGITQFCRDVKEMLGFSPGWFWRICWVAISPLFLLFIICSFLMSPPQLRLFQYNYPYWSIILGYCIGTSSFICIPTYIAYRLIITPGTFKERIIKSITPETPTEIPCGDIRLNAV

| SMILES | IC50 [1] | IC50 [2] | IC50 (5HT-transporter) | h-α2A pIC50 [1] | h-α2C pIC50 [2] | h-5HTT pIC50 (5HT-transporter) |
| --- | --- | --- | --- | --- | --- | --- |
| CN(CC(=O)N(C)C)Cc1ccc(-n2ccnc(NC3CCN(Cc4ccc5ccccc5c4)CC3)c2=O)cc1 [1-57] | 251 nM | 15.8 nM | 50.1 nM | – | – | – |
| CC(=O)NCCN(C)Cc1ccc(-n2ccnc(NC3CCN(Cc4ccc5ccccc5c4)CC3)c2=O)cc1 [1-60] | 200 nM | 25.1 nM | 10 nM | – | – | – |
| CN(C(=O)Cn1ccnc(NC2CCN(Cc3ccc4ccccc4c3)CC2)c1=O)c1ccccc1 [1-63] | 158 nM | 25.1 nM | 63.1 nM | – | – | – |
| O=c1c(NC2CCN(Cc3ccc4ccccc4c3)CC2)nccn1CCCNCc1ccccc1 [1-67] | 631 nM | 25.1 nM | 158 nM | – | – | – |
| CN(Cc1ccccc1)C(=O)Cn1ccnc(NC2CCN(Cc3ccc4ccccc4c3)CC2)c1=O [1-69] | 200 nM | 20 nM | 50.1 nM | – | – | – |
| CN(Cc1ccccc1)Cc1ccc(-n2ccnc(NC3CCN(Cc4ccc5ccccc5c4)CC3)c2=O)cc1 [1-70] | – | – | – | 6.5 | 7.5 | 8.0 |
| CC(C)(Cc1ccccc1)NC(=O)Cn1ccnc(NC2CCN(Cc3ccc4ccccc4c3)CC2)c1=O [1-73] | 398 nM | 39.8 nM | 158 nM | – | – | – |
| O=C(NCCCn1ccnc(NC2CCN(Cc3ccc4ccccc4c3)CC2)c1=O)c1ccccc1 [1-74] | 794 nM | 31.6 nM | 126 nM | – | – | – |
| O=C(Nc1cccc(-n2ccnc(NC3CCN(Cc4ccc5ccccc5c4)CC3)c2=O)c1)c1ccc(F)cc1 [1-75] | 100 nM | 63.1 nM | 3.98 nM | – | – | – |
| O=c1c(NC2CCN(Cc3ccc4ccccc4c3)CC2)nccn1CCCNCCOc1ccccc1 [1-77] | 398 nM | 25.1 nM | 63.1 nM | – | – | – |
| O=c1c(NC2CCN(Cc3ccc4ccccc4c3)CC2)nccn1-c1ccc(CNCC2CCCO2)c(F)c1 (stereo not drawn) [1-80] | 251 nM | 2.51 nM | 3.16 nM | – | – | – |
| O=c1c(NC2CCN(Cc3ccc4ccccc4c3)CC2)nccn1-c1ccc(CNCc2ccco2)cc1 [1-82] | 158 nM | 12.6 nM | 5.01 nM | – | – | – |
| Cc1ccc(CNCc2ccc(-n3ccnc(NC4CCN(Cc5ccc6ccccc6c5)CC4)c3=O)cc2)o1.Cl.Cl [1-83] | – | – | – | 6.7 | 7.6 | 8.3 |
| Cc1ccc(CNCc2ccc(-n3ccnc(NC4CCN(Cc5ccc6ccccc6c5)CC4)c3=O)cc2F)o1 [1-84] | 200 nM | 10 nM | 3.16 nM | – | – | – |
| Cc1ccc(CN(Cc2ccc(-n3ccnc(NC4CCN(Cc5ccc6ccccc6c5)CC4)c3=O)cc2)Cc2ccc(C)o2)o1 [1-85] | 794 nM | 79.4 nM | 31.6 nM | – | – | – |
| Cc1cc(CNC(=O)c2ccc(-n3ccnc(NC4CCN(Cc5ccc6ccccc6c5)CC4)c3=O)cc2)no1 [1-86] | 251 nM | 25.1 nM | 25.1 nM | – | – | – |
| Cc1cc(CNCc2ccc(-n3ccnc(NC4CCN(Cc5ccc6ccccc6c5)CC4)c3=O)cc2F)no1 [1-87] | 251 nM | 12.6 nM | 12.6 nM | – | – | – |
| O=c1c(NC2CCN(Cc3ccc4ccccc4c3)CC2)nccn1-c1ccc(NCCN2CCC(F)CC2)cc1 [1-89] | 200 nM | 12.6 nM | 15.8 nM | – | – | – |
| O=c1c(NC2CCN(Cc3ccc4ccccc4c3)CC2)nccn1-c1ccc(CNCc2ccccn2)cc1 [1-90] | 251 nM | 12.6 nM | 7.94 nM | – | – | – |

More lines, now with the values ahead:

| IC50 [1] | IC50 [2] | IC50 (5HT-transporter) | h-α2A pIC50 [1] | h-α2C pIC50 [2] | h-5HTT pIC50 (5HT-transporter) | SMILES |
| --- | --- | --- | --- | --- | --- | --- |
| 251 nM | 25.1 nM | 15.8 nM | – | – | – | NC(=O)CCNCc1ccc(-n2ccnc(NC3CCN(Cc4ccc5ccccc5c4)CC3)c2=O)cc1 [1-56] |
| 79.4 nM | 7.94 nM | 6.31 nM | – | – | – | CCN(CC)CCC(=O)NCc1ccc(-n2ccnc(NC3CCN(Cc4ccc5ccccc5c4)CC3)c2=O)cc1 [1-58] |
| 316 nM | 39.8 nM | 31.6 nM | – | – | – | CN(C)C(=O)CCC(=O)NCc1ccc(-n2ccnc(NC3CCN(Cc4ccc5ccccc5c4)CC3)c2=O)cc1 [1-59] |
| 200 nM | 12.6 nM | 10 nM | – | – | – | CC(=O)NCCNCc1ccc(-n2ccnc(NC3CCN(Cc4ccc5ccccc5c4)CC3)c2=O)cc1 [1-61] |
| – | – | – | 6.4 | 7.3 | 7.5 | CC(=O)NCCCC(=O)NCc1ccc(-n2ccnc(NC3CCN(Cc4ccc5ccccc5c4)CC3)c2=O)cc1 [1-62] |
| 158 nM | 31.6 nM | 126 nM | – | – | – | O=C(Cn1ccnc(NC2CCN(Cc3ccc4ccccc4c3)CC2)c1=O)Nc1ccccc1 [1-64] |
| 158 nM | 39.8 nM | 158 nM | – | – | – | O=C(Cn1ccnc(NC2CCN(Cc3ccc4ccccc4c3)CC2)c1=O)Nc1ccc(F)cc1 [1-65] |
| 316 nM | 12.6 nM | 63.1 nM | – | – | – | O=C(Cn1ccnc(NC2CCN(Cc3ccc4ccccc4c3)CC2)c1=O)NCc1ccc(F)cc1 [1-66] |
| 200 nM | 20 nM | 158 nM | – | – | – | O=C(Cn1ccnc(NC2CCN(Cc3ccc4ccccc4c3)CC2)c1=O)NCc1ccccc1 [1-68] |
| 316 nM | 20 nM | 126 nM | – | – | – | O=C(Cn1ccnc(NC2CCN(Cc3ccc4ccccc4c3)CC2)c1=O)NCCc1ccccc1 [1-71] |
| 200 nM | 31.6 nM | 63.1 nM | – | – | – | O=C(Cn1ccnc(NC2CCN(Cc3ccc4ccccc4c3)CC2)c1=O)NCCCc1ccccc1 [1-72] |
| – | – | – | 6.2 | 8.1 | 8.2 | O=C(NCc1ccc(-n2ccnc(NC3CCN(Cc4ccc5ccccc5c4)CC3)c2=O)cc1)c1ccc(F)cc1 [1-76] |
| 158 nM | 31.6 nM | 631 nM | – | – | – | O=C(Cn1ccnc(NC2CCN(Cc3ccc4ccccc4c3)CC2)c1=O)NCc1ccco1 [1-81] |

— patent publication US20080269251A1, “Substituted Pyrazinone Derivatives as Alpha2C-Adrenoreceptor Antagonists” (priority 2005, published 2008)
